Measured values as given in patent publication US12552771B2, “Carboxylic acid containing azetidinyl compounds for the treatment of neurodegenerative diseases” (Celgene Corporation, priority 2021, dated 2026).

Target: T1, S1P5 receptors (Homo sapiens, UniProt Q9H228)
T1 construct: expressed in transfected cells; host or cells: CHO cells (membranes)
Experiment: [35S]-GTPγS binding assay with CHO-S1P5 receptor membranes
Type: biochemical
Settings: membranes of CHO cells expressing recombinant S1P5 receptors; measure of S1P5 agonism
Description: CHO cells expressing recombinant S1P5 receptors were cultured in 500 cm^2 culture trays and, once confluent, rinsed and detached with cell-lifting buffer (10 mM HEPES, 154 mM NaCl, 6.85 mM EDTA, pH 7.4). Cells were then pelleted by centrifugation, resuspended, and homogenized in membrane preparation buffer (10 mM HEPES and 10 mM EDTA, pH 7.4) using a Polytron PT 1200E homogenizer (Kinematica, Luzern, Switzerland). Cellular proteins were pelleted by centrifugation at 48,000×g at 4° C. for 30 minutes. The resulting supernatant was discarded, and the pellet was re-suspended again in membrane preparation buffer, homogenized for a second time, and then centrifuged again as described above. The final cellular protein pellet was suspended in ice cold resuspension buffer (10 mM HEPES and 0.1 mM EDTA, pH 7.4), divided into aliquots, and stored at −80° C. until use.
Functional binding assays for [^35]-GTPγS were performed in 96-well non-binding surface plates with a final volume of 200 μL. The test compounds were serially diluted in DMSO and added to assay plates using a Tecan D300E digital printer with a total volume of […]. The control sphingosine-1-phosphate (SiP) was prepared separately by preparing a 400 μM stock solution from a 100 nmol pellet of SiP in 10 mM Na2CO3 with 2% […]. The serial dilution of SiP was done using complete assay buffer (20 mM HEPES, 10 mM MgCl2, 100 mM NaCl, 1 mM EDTA, 0.1% fatty acid free bovine serum albumin (BSA), and 30 μg/mL saponin, pH 7.4) and transferred to wells already containing 0.4 μL DMSO. All the wells were then loaded to a total volume of 40 μL of complete assay buffer, except the non-specific binding (NSB) wells. For NSB wells, 40 μL/well of 50 μM GTPγS (Sigma Aldrich, cat #G8634, St. Louis, MO) was added to wells containing 0.4 μL of DMSO. The assay was started by the addition of 120 μL/well of CHO-S1P receptor membrane solution containing 40 μg/mL of membrane protein, 16.67 μM guanosine diphosphate (GDP; Sigma Aldrich, cat #G7127, St. Louis, MO), and 2.5 mg/mL of WGA PVT SPA beads in complete buffer. Assay plates were then sealed and incubated at room temperature with gentle agitation for 30 minutes. Next, 40 μL/well of 1 nM of [^35]-GTPγS (PerkinElmer, cat #NEG030X250UC, Waltham, MA) in basic assay buffer (20 mM HEPES, 10 mM MgCl2, 100 mM NaCl, and 1 mM EDTA, pH7.4) was added to the assay plates to yield a final concentration of 200 pM and the plates were further incubated for 40 minutes at room temperature with gentle agitation. The assay was terminated by centrifugation of the plates at 1000 rpm for 3 minutes using an Eppendorf 5810R centrifuge (Eppendorf, Hamburg, Germany) and G protein bound radioactivity was quantitated using a MicroBeta2 microplate scintillation counter (PerkinElmer, Waltham, MA). As G protein bound radioactivity directly correlates to receptor activation and coupling to the G protein, this assay is a measure of S1P5 agonism.

T1 sequence (Q9H228 whole entry): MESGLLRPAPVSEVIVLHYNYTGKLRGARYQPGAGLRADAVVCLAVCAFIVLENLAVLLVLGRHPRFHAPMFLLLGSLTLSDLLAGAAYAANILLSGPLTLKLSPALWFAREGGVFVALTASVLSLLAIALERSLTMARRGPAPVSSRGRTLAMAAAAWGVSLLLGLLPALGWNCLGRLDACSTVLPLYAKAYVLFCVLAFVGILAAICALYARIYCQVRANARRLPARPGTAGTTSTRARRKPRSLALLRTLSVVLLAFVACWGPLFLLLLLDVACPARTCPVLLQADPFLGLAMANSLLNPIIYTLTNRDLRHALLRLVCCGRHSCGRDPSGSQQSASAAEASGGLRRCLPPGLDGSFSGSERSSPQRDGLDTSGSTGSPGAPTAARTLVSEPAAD

| Structure (SMILES) | EC50 [nM] |
| --- | --- |
| Cc1cc(C2CN(c3c(Cl)cccc3Cl)C2)ccc1C(C)N1CCC(C(=O)O)CC1 (single isomer, unassigned) [Compound 16a, 1-(1-(4-(1-(2,6-dichlorophenyl)azetidin-3-yl)-2-methylphenyl)ethyl)piperidine-4-carboxylic acid] | 10 to 100 |
| O=C(O)C1CCN(Cc2ccc(C3CN(c4c(Cl)cccc4Cl)C3)cc2F)CC1 [Compound 23, 1-(4-(1-(2,6-dichlorophenyl)azetidin-3-yl)-2-fluorobenzyl)piperidine-4-carboxylic acid] | ≤ 10 |
| O=C(O)C1CCN(Cc2ccc(C3CN(c4c(Cl)cccc4Cl)C3)c(F)c2)CC1 [Compound 22, 1-(4-(1-(2,6-dichlorophenyl)azetidin-3-yl)-3-fluorobenzyl)piperidine-4-carboxylic acid] | ≤ 10 |
| Cc1cc(CN2CCC(C(=O)O)CC2)cnc1C1CN(c2c(Cl)cccc2Cl)C1 [Compound 79, 1-((6-(1-(2,6-dichlorophenyl)azetidin-3-yl)-5-methylpyridin-3-yl)methyl)piperidine-4-carboxylic acid] | 100 to 1000 |
| O=C(O)C1CCN(Cc2ccc(N3CC(c4c(Cl)cccc4Cl)C3)nc2)CC1 [Compound 32, 1-((6-(3-(2,6-dichlorophenyl)azetidin-1-yl)pyridin-3-yl)methyl)piperidine-4-carboxylic acid] | 10 to 100 |
| O=C(O)C1CCN(Cc2ccc(C3CN(c4c(Cl)cccc4Cl)C3)nc2)CC1 [Compound 21, 1-((6-(1-(2,6-dichlorophenyl)azetidin-3-yl)pyridin-3-yl)methyl)piperidine-4-carboxylic acid] | 10 to 100 |
| O=C(O)C1CCN(Cc2ccc(C3CN(c4ccccc4F)C3)cc2)CC1 [Compound 40, 1-(4-(1-(2-fluorophenyl)azetidin-3-yl)benzyl)piperidine-4-carboxylic acid] | 100 to 1000 |
| O=C(O)C1CCN(Cc2ccc(N3CC(c4c(Cl)cccc4Cl)C3)c(F)c2)CC1 [Compound 34, 1-(4-(3-(2,6-dichlorophenyl)azetidin-1-yl)-3-fluorobenzyl)piperidine-4-carboxylic acid] | ≤ 10 |
| O=C(O)C1CCN(Cc2ccc(N3CC(c4c(Cl)cccc4Cl)C3)cc2)CC1 [Compound 24, 1-(4-(3-(2,6-dichlorophenyl)azetidin-1-yl)benzyl)piperidine-4-carboxylic acid] | 10 to 100 |
| O=C(O)C1CN(Cc2ccc(C3CN(c4c(Cl)cccc4Cl)C3)cc2)C1 [Compound 13, 1-(4-(1-(2,6-dichlorophenyl)azetidin-3-yl)benzyl)azetidine-3-carboxylic acid] | ≤ 10 |
| O=C(O)C1CCN(Cc2ccc(C3CN(c4c(Cl)cccc4Cl)C3)cn2)CC1 [Compound 18, 1-((5-(1-(2,6-dichlorophenyl)azetidin-3-yl)pyridin-2-yl)methyl)piperidine-4-carboxylic acid] | 100 to 1000 |
| O=C(O)C1CCN(Cc2ccc(N3CC(c4c(Cl)cccc4Cl)C3)cn2)CC1 [Compound 29, 1-((5-(3-(2,6-dichlorophenyl)azetidin-1-yl)pyridin-2-yl)methyl)piperidine-4-carboxylic acid] | 10 to 100 |
| O=C(O)C1CCN(Cc2ccc(C3CN(c4c(Cl)cccc4Cl)C3)c3ccccc23)CC1 [Compound 54, 1-((4-(1-(2,6-dichlorophenyl)azetidin-3-yl)naphthalen-1-yl)methyl)-piperidine-4-carboxylic acid] | ≤ 10 |
| O=C(O)C1CCN(Cc2ccc(N3CC(F)(c4c(Cl)cccc4Cl)C3)cc2)CC1 [Compound 35, 1-(4-(3-(2,6-dichlorophenyl)-3-fluoroazetidin-1-yl)benzyl)piperidine-4-carboxylic acid] | 1000 to 10000 |

Continued, values first:

| EC50 [nM] | Structure (SMILES) |
| --- | --- |
| 10 to 100 | Cc1cc(C2CN(c3c(Cl)cccc3Cl)C2)cc(C)c1CN1CCC(C(=O)O)CC1C (stereo not drawn) [Compound 63, 1-(4-(1-(2,6-dichlorophenyl)azetidin-3-yl)-2,6-dimethylbenzyl)-2-methyl-piperidine-4-carboxylic acid] |
| ≤ 10 | Cc1cc(C2CN(c3c(C)cccc3Cl)C2)cc(C)c1CN1CCC(C(=O)O)CC1 [Compound 67, 1-(4-(1-(2-chloro-6-methylphenyl)azetidin-3-yl)-2,6-dimethylbenzyl)-piperidine-4-carboxylic acid] |
| 10 to 100 | Cc1cc(C2CN(c3c(Cl)cccc3Cl)C2)cc(C#N)c1CN1CCC(C(=O)O)CC1 [Compound 58, 1-(2-cyano-4-(1-(2,6-dichlorophenyl)azetidin-3-yl)-6-methylbenzyl)-piperidine-4-carboxylic acid] |
| ≤ 10 | CCc1cc(C2CN(c3c(Cl)cccc3Cl)C2)cc(C)c1CN1CCC(C(=O)O)CC1 [Compound 55, 1-(4-(1-(2,6-dichlorophenyl)azetidin-3-yl)-2-ethyl-6-methylbenzyl)-piperidine-4-carboxylic acid] |
| ≤ 10 | Cc1cc(C2CN(c3c(Cl)cccc3Cl)C2)cc2c1C(N1CCC(C(=O)O)CC1)CC2 (racemic) [Compound 5, 1-(5-(1-(2,6-dichlorophenyl)azetidin-3-yl)-7-methyl-2,3-dihydro-1H-inden-1-yl)piperidine-4-carboxylic acid] |
| ≤ 10 | Cc1cc(C2CN(c3c(C)cccc3C#N)C2)cc(C)c1CN1CCC(C(=O)O)CC1 [Compound 74, 1-(4-(1-(2-cyano-6-methylphenyl)azetidin-3-yl)-2,6-dimethylbenzyl)-piperidine-4-carboxylic acid] |
| ≤ 10 | Cc1cc(C2CN(c3c(Cl)cccc3Cl)C2)cc(C)c1CN1CC(C(=O)O)C1 [Compound 59, 1-(4-(1-(2,6-dichlorophenyl)azetidin-3-yl)-2,6-dimethylbenzyl)azetidine-3-carboxylic acid] |
| 10 to 100 | Cc1cc(CN2CCC(C(=O)O)CC2)nc(C)c1C1CN(c2c(Cl)cccc2Cl)C1 [Compound 84, 1-((5-(1-(2,6-dichlorophenyl)azetidin-3-yl)-4,6-dimethyl-pyridin-2-yl)methyl)piperidine-4-carboxylic acid] |
| ≤ 10 | Cc1cc(C2CN(c3c(C)cccc3C3CC3)C2)cc(C)c1CN1CCC(C(=O)O)CC1 [Compound 71, 1-(4-(1-(2-cyclopropyl-6-methylphenyl)azetidin-3-yl)-2,6-dimethylbenzyl)-piperidine-4-carboxylic acid] |
| ≤ 10 | Cc1cc(C2CN(c3c(C)cccc3F)C2)cc(C)c1CN1CCC(C(=O)O)CC1 [Compound 66, 1-(4-(1-(2-fluoro-6-methylphenyl)azetidin-3-yl)-2,6-dimethylbenzyl)-piperidine-4-carboxylic acid] |
| 100 to 1000 | CC(C)c1cc(C2CN(c3c(Cl)cccc3Cl)C2)cc(C(C)C)c1CN1CCC(C(=O)O)CC1 [Compound 53, 1-(4-(1-(2,6-dichlorophenyl)azetidin-3-yl)-2,6-diisopropylbenzyl)piperidine-4-carboxylic acid] |
| ≤ 10 | Cc1cc(C2CN(c3c(Cl)cccc3Cl)C2)cc(C)c1CN1CCC(C(=O)O)C(C)C1 (stereo not drawn) [Compound 61, 1-(4-(1-(2,6-dichlorophenyl)azetidin-3-yl)-2,6-dimethylbenzyl)-3-methyl-piperidine-4-carboxylic acid] |
| 10 to 100 | Cc1cc(CN2CCC(C(=O)O)CC2)c(C)nc1C1CN(c2c(Cl)cccc2Cl)C1 [Compound 83, 1-((6-(1-(2,6-dichlorophenyl)azetidin-3-yl)-2,5-dimethyl-pyridin-3-yl)methyl)piperidine-4-carboxylic acid] |
| 100 to 1000 | Cc1cc(CN2CCC(C(=O)O)CC2)ncc1C1CN(c2c(Cl)cccc2Cl)C1 [Compound 77, 1-((5-(1-(2,6-dichlorophenyl)azetidin-3-yl)-4-methylpyridin-2-yl)methyl)-piperidine-4-carboxylic acid] |
| 100 to 1000 | O=C(O)C1CCN(Cc2ccc(C3CN(c4ccc(C5CC5)c(Cl)c4)C3)cc2)CC1 [Compound 42, 1-(4-(1-(3-chloro-4-cyclopropylphenyl)azetidin-3-yl)benzyl)piperidine-4-carboxylic acid] |
| 10 to 100 | Cc1cc(C2CN(c3ccccc3C3CC3)C2)cc(C)c1CN1CCC(C(=O)O)CC1 [Compound 70, 1-(4-(1-(2-cyclopropylphenyl)azetidin-3-yl)-2,6-dimethylbenzyl)piperidine-4-carboxylic acid] |
